Assay results reported in patent US10344060B2 (priority 2013, dated 2019).

Experiments:
hNav1.5 = hNav1.5 (Homo sapiens, UniProt Q14524); test: cell-based; conditions: Table 12; ratio of PX tonic IC50 values
hNav1.4 = hNav1.4 (Homo sapiens, UniProt P35499); test: cell-based; type: cell-based; conditions: Table 12; ratio of PX tonic IC50 values
Chain of hNav1.4 (P35499 whole entry): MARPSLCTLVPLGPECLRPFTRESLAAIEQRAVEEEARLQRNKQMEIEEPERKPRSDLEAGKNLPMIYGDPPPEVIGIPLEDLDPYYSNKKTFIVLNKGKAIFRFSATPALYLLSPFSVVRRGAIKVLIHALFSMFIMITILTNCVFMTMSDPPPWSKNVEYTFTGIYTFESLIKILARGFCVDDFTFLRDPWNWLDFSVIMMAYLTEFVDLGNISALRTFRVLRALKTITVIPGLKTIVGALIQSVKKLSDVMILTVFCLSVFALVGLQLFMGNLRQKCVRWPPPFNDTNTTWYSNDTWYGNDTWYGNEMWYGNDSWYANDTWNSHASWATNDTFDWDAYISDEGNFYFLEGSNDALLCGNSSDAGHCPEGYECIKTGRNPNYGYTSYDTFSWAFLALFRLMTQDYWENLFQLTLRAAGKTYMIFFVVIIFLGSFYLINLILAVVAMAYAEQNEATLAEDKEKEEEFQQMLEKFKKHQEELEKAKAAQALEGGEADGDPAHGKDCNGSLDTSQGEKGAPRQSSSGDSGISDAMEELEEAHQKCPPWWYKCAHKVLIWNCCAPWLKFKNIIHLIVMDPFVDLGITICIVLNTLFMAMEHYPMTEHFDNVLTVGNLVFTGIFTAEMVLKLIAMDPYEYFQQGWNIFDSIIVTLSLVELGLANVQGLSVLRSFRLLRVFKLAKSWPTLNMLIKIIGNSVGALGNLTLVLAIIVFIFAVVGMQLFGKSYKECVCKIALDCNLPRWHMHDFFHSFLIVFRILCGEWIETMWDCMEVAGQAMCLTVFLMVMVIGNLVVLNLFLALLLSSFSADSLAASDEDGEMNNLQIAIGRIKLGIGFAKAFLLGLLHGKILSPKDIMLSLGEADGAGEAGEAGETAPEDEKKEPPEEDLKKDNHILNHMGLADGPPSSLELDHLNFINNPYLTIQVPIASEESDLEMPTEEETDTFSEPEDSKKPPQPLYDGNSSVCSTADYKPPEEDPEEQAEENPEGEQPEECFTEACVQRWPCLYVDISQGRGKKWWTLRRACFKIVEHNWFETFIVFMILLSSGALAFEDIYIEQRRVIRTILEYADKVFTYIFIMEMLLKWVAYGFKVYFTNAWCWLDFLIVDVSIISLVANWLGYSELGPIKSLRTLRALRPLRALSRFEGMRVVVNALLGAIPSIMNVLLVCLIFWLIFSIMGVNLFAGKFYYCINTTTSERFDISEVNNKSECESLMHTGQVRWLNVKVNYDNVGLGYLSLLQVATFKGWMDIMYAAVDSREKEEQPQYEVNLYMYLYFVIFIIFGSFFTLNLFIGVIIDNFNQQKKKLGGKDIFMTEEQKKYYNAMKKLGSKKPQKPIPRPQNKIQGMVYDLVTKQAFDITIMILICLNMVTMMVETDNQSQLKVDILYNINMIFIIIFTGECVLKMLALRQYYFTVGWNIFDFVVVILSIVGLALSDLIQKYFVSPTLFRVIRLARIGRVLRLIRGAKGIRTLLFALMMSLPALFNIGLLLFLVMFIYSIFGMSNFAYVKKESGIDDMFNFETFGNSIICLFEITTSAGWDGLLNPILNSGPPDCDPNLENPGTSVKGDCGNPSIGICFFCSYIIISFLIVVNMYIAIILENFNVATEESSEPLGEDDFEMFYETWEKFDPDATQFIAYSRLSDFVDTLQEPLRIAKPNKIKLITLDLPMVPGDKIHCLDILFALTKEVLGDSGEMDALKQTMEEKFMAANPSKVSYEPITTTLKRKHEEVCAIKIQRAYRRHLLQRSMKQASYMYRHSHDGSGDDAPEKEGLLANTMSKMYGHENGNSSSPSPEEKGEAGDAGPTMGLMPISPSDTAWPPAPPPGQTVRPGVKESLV

Chain of hNav1.5 (Q14524 whole entry): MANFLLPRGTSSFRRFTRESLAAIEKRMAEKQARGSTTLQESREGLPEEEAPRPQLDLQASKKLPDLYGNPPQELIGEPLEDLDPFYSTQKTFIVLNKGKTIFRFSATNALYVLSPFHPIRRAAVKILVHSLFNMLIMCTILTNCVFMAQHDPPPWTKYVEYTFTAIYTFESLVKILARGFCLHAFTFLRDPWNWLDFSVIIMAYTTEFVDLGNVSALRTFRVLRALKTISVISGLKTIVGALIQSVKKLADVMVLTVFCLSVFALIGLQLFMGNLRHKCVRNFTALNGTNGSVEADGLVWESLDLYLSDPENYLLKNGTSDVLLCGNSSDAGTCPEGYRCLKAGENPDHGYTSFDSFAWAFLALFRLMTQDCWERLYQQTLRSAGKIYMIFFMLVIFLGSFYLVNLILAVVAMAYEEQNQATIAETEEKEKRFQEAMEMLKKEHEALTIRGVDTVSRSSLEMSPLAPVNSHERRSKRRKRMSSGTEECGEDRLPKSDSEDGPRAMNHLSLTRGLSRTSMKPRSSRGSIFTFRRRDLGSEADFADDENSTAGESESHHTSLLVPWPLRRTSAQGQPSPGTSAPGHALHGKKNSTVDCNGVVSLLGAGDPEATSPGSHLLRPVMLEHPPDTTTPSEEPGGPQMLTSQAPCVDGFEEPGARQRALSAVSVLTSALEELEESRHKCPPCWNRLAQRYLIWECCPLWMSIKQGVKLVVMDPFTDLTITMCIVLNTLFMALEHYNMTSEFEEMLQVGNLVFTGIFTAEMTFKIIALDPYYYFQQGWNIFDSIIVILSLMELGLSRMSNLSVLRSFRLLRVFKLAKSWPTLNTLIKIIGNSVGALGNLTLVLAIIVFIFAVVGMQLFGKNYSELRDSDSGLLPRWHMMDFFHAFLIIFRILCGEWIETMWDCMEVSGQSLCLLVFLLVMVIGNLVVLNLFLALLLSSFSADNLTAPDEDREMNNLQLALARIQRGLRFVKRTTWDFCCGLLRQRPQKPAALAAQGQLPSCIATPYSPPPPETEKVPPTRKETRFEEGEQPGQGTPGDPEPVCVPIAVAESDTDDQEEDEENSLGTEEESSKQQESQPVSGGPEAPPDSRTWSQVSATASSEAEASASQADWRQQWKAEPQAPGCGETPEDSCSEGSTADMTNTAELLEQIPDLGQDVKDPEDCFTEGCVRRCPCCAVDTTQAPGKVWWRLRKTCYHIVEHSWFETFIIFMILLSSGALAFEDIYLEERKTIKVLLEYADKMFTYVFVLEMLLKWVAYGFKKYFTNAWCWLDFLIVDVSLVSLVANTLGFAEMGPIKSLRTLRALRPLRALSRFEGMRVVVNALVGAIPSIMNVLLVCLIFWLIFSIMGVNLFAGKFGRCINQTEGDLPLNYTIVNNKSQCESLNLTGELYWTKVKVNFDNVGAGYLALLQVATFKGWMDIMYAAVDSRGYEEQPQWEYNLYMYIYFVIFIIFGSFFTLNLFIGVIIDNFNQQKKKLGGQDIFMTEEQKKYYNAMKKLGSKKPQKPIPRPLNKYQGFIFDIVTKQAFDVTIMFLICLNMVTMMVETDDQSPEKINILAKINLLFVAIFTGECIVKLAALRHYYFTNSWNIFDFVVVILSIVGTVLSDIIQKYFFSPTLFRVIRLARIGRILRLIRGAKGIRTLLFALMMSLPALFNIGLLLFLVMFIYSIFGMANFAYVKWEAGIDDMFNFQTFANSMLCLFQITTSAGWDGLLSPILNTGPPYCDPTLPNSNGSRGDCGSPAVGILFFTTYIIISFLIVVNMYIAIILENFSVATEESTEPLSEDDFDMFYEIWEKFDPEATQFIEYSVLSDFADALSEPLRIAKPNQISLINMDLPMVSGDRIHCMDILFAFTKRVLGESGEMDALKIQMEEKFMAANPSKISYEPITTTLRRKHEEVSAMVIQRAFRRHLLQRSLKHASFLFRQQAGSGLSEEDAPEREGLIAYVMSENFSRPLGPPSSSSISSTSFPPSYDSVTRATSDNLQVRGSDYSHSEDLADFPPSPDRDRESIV

How did the Nav1.5/Nav1.7 (hNav1.5) turn out when `C#CC[C@H](N)C(=O)N[C@@H](Cc1ccc(O)cc1)C(=O)N[C@H]1CSSC[C@@H]2NC(=O)[C@@H]3CSSC[C@@H](C(=O)N[C@@H](CCCNC(=N)N)C(=O)N[C@@H](CCCCN)C(=O)N[C@H](C(=O)N[C@@H](Cc4c[nH]c5ccccc45)C(N)=O)[C@@H](C)CC)NC(=O)[C@H](Cc4c[nH]c5ccccc45)NC(=O)[C@H](CC(C)C)NC(=O)[C@H](CCCCN)NC(=O)[C@H](CSSC[C@H](NC(=O)[C@H]([C@@H](C)O)NC(=O)[C@H](Cc4c[nH]c5ccccc45)NC(=O)[C@H](CCC)NC(=O)[C@H](Cc4c[nH]c5ccccc45)NC(=O)[C@H](CCCCN)NC(=O)[C@H](CCC(N)=O)NC1=O)C(=O)N[C@@H](CC(=O)O)C(=O)N[C@@H](CO)C(=O)N[C@@H](CCCCN)C(=O)N[C@@H](CCCNC(=N)N)C(=O)N[C@@H](C)C(=O)N3)NC(=O)[C@H](CCC(=O)O)NC(=O)[C@H](CC(C)C)NC(=O)CNC(=O)[C@H](CCC(=O)O)NC2=O` [compound 300] was run?
Its Nav1.5/Nav1.7 is 6483.

What about the Nav1.4/Nav1.7 (hNav1.4) of the same molecule?
Its Nav1.4/Nav1.7 is 1183.

Which results are given for `C#CC[C@@H]1NC(=O)[C@@H]2CSSC[C@H](NC(=O)[C@@H](N)Cc3ccc(O)cc3)C(=O)N[C@@H](CCC(N)=O)C(=O)N[C@@H](CCCCN)C(=O)N[C@@H](Cc3c[nH]c4ccccc34)C(=O)N[C@@H](CCCC)C(=O)N[C@@H](Cc3c[nH]c4ccccc34)C(=O)N[C@@H]([C@@H](C)O)C(=O)N[C@H]3CSSC[C@H](NC(=O)[C@H](CCC(=O)O)NC(=O)[C@H](CC(C)C)NC(=O)CNC1=O)C(=O)N[C@@H](CCCCN)C(=O)N[C@@H](CC(C)C)C(=O)N[C@@H](Cc1c[nH]c4ccccc14)C(=O)N[C@H](C(=O)N[C@@H](CCCNC(=N)N)C(=O)N[C@@H](CCCCN)C(=O)N[C@H](C(=O)N[C@H](C(N)=O)[C@@H](C)CC)[C@@H](C)CC)CSSC[C@H](NC(=O)[C@H](C)NC(=O)[C@H](CCCNC(=N)N)NC(=O)[C@H](CCCCN)NC(=O)[C@H](CO)NC(=O)[C@H](CC(=O)O)NC3=O)C(=O)N2` [compound 346]?
Nav1.5/Nav1.7 (hNav1.5): 102; Nav1.4/Nav1.7 (hNav1.4): 29

With `C#CC[C@@H]1NC(=O)[C@H](CC(=O)O)NC(=O)[C@@H]2CSSC[C@@H]3NC(=O)[C@H](CCCNC(=N)N)NC(=O)[C@H](CC(C)C)NC(=O)CNC(=O)[C@H](CCC(=O)O)NC(=O)[C@H](CSSC[C@H](NC(=O)[C@@H](N)Cc4ccc(O)cc4)C(=O)N[C@@H](CCC(N)=O)C(=O)N[C@@H](CCCCN)C(=O)N[C@@H](Cc4c[nH]c5ccccc45)C(=O)N[C@@H](CCCC)C(=O)N[C@@H](Cc4c[nH]c5ccccc45)C(=O)N[C@@H]([C@@H](C)O)C(=O)N2)NC(=O)[C@H](CSSC[C@@H](C(=O)N[C@@H](CCCNC(=N)N)C(=O)N[C@@H](CCCCN)C(=O)N[C@@H](CCC(=O)O)C(=O)N[C@H](C(N)=O)[C@@H](C)CC)NC(=O)[C@H](Cc2c[nH]c4ccccc24)NC(=O)[C@H](CC(C)C)NC(=O)[C@H](CCCCN)NC3=O)NC(=O)[C@H](C)NC(=O)[C@H](CCCNC(=N)N)NC(=O)[C@H](CCCCN)NC1=O` [compound 330] as the molecule, how does the Nav1.5/Nav1.7 (hNav1.5) read?
Its Nav1.5/Nav1.7 is 7841.

What about the Nav1.4/Nav1.7 (hNav1.4) of the same molecule?
The Nav1.4/Nav1.7 was 291.

How did the Nav1.5/Nav1.7 (hNav1.5) turn out when `C#CC[C@H](N)C(=O)N[C@@H](Cc1ccc(O)cc1)C(=O)N[C@H]1CSSC[C@@H]2NC(=O)[C@@H]3CSSC[C@@H](C(=O)N[C@@H](CCCNC(=N)N)C(=O)N[C@@H](CCCCN)C(=O)N[C@H](C(=O)N[C@@H](Cc4c[nH]c5ccccc45)C(N)=O)[C@@H](C)CC)NC(=O)[C@H](Cc4c[nH]c5ccccc45)NC(=O)[C@H](CC(C)C)NC(=O)[C@H](CCCCN)NC(=O)[C@H](CSSC[C@H](NC(=O)[C@H]([C@@H](C)O)NC(=O)[C@H](Cc4c[nH]c5ccccc45)NC(=O)[C@H](CC(C)C)NC(=O)[C@H](Cc4c[nH]c5ccccc45)NC(=O)[C@H](CCCCN)NC(=O)[C@H](CCC(N)=O)NC1=O)C(=O)N[C@@H](CC(=O)O)C(=O)N[C@@H](CO)C(=O)N[C@@H](CCCCN)C(=O)N[C@@H](CCCNC(=N)N)C(=O)N[C@@H](C)C(=O)N3)NC(=O)[C@H](CCC(=O)O)NC(=O)[C@H](CC(C)C)NC(=O)CNC(=O)[C@H](CCC(=O)O)NC2=O` [compound 299] was run?
Its Nav1.5/Nav1.7 is 2332.

And the Nav1.4/Nav1.7 (hNav1.4)?
Its Nav1.4/Nav1.7 is 2069.

What does the source list for `C#CC[C@H](N)C(=O)N[C@H]1CSSC[C@@H]2NC(=O)[C@@H]3CSSC[C@@H](C(=O)N[C@@H](CCCNC(=N)N)C(=O)N[C@@H](CCCCN)C(=O)N[C@@H](CCC(=O)O)C(=O)N[C@H](C(N)=O)[C@@H](C)CC)NC(=O)[C@H](Cc4c[nH]c5ccccc45)NC(=O)[C@H](CC(C)C)NC(=O)[C@H](CCCCN)NC(=O)[C@H](CSSC[C@H](NC(=O)[C@H]([C@@H](C)O)NC(=O)[C@H](Cc4c[nH]c5ccccc45)NC(=O)[C@H](CCCC)NC(=O)[C@H](Cc4c[nH]c5ccccc45)NC(=O)[C@H](CCCCN)NC(=O)[C@H](CCC(N)=O)NC1=O)C(=O)N[C@@H](CC(=O)O)C(=O)N[C@@H](CO)C(=O)N[C@@H](CCCCN)C(=O)N[C@@H](CCCNC(=N)N)C(=O)N[C@@H](C)C(=O)N3)NC(=O)[C@H](CCCNC(=N)N)NC(=O)[C@H](CC(C)C)NC(=O)CNC(=O)[C@H](CCC(=O)O)NC2=O` [compound 329]?
Nav1.5/Nav1.7 (hNav1.5): 17167; Nav1.4/Nav1.7 (hNav1.4): 555

For `C#CC[C@H](N)C(=O)NCCOCCOCCOCCOCCC(=O)NCCCC[C@@H]1NC(=O)[C@@H]2CSSC[C@H](NC(=O)[C@@H](N)Cc3ccc(O)cc3)C(=O)N[C@@H](CCC(N)=O)C(=O)N[C@@H](CCCCN)C(=O)N[C@@H](Cc3c[nH]c4ccccc34)C(=O)N[C@@H](CCCC)C(=O)N[C@@H](Cc3c[nH]c4ccccc34)C(=O)N[C@@H]([C@@H](C)O)C(=O)N[C@H]3CSSC[C@H](NC(=O)[C@H](CCC(=O)O)NC(=O)[C@H](CC(C)C)NC(=O)CNC1=O)C(=O)N[C@@H](CCCCN)C(=O)N[C@@H](CC(C)C)C(=O)N[C@@H](Cc1c[nH]c4ccccc14)C(=O)N[C@H](C(=O)N[C@@H](CCCNC(=N)N)C(=O)N[C@@H](CCCCN)C(=O)N[C@H](C(=O)N[C@@H](Cc1c[nH]c4ccccc14)C(N)=O)[C@@H](C)CC)CSSC[C@H](NC(=O)[C@H](C)NC(=O)[C@H](CCCNC(=N)N)NC(=O)[C@H](CCCCN)NC(=O)[C@H](CO)NC(=O)[C@H](CC(=O)O)NC3=O)C(=O)N2` [compound 293], which Nav1.5/Nav1.7 (hNav1.5) is on record?
Its Nav1.5/Nav1.7 is 1.

What about the Nav1.4/Nav1.7 (hNav1.4) of the same molecule?
The Nav1.4/Nav1.7 was 1.

Which results are given for `C#CC[C@H](N)C(=O)N[C@@H](Cc1ccc(O)cc1)C(=O)N[C@H]1CSSC[C@@H]2NC(=O)[C@@H]3CSSC[C@@H](C(=O)N[C@@H](CCCNC(=N)N)C(=O)N[C@@H](CCCCN)C(=O)N[C@H](C(=O)N[C@H](C(N)=O)[C@@H](C)CC)[C@@H](C)CC)NC(=O)[C@H](Cc4c[nH]c5ccccc45)NC(=O)[C@H](CC(C)C)NC(=O)[C@H](CCCCN)NC(=O)[C@H](CSSC[C@H](NC(=O)[C@H]([C@@H](C)O)NC(=O)[C@H](Cc4c[nH]c5ccccc45)NC(=O)[C@H](CCCC)NC(=O)[C@H](Cc4c[nH]c5ccccc45)NC(=O)[C@H](CCCCN)NC(=O)[C@H](CCC(N)=O)NC1=O)C(=O)N[C@@H](CC(=O)O)C(=O)N[C@@H](CO)C(=O)N[C@@H](CCCCN)C(=O)N[C@@H](CCCNC(=N)N)C(=O)N[C@@H](C)C(=O)N3)NC(=O)[C@H](CCC(=O)O)NC(=O)[C@H](CC(C)C)NC(=O)CNC(=O)[C@H](CCC(=O)O)NC2=O` [compound 297]?
Nav1.5/Nav1.7 (hNav1.5): 642; Nav1.4/Nav1.7 (hNav1.4): 431

With `C#CC[C@H](N)C(=O)NCCCC[C@@H]1NC(=O)[C@H](CCCNC(=N)N)NC(=O)[C@H](CCCCN)NC(=O)[C@H](CO)NC(=O)[C@H](CC(=O)O)NC(=O)[C@@H]2CSSC[C@@H]3NC(=O)[C@H](CCCNC(=N)N)NC(=O)[C@H](CC(C)C)NC(=O)CNC(=O)[C@H](CCC(=O)O)NC(=O)[C@H](CSSC[C@H](NC(=O)[C@H](Cc4ccc(O)cc4)NC(=O)[C@@H](N)CC#N)C(=O)N[C@@H](CCC(N)=O)C(=O)N[C@@H](CCCCN)C(=O)N[C@@H](Cc4c[nH]c5ccccc45)C(=O)N[C@@H](CC(C)C)C(=O)N[C@@H](Cc4c[nH]c5ccccc45)C(=O)N[C@@H]([C@@H](C)O)C(=O)N2)NC(=O)[C@H](CSSC[C@@H](C(=O)N[C@@H](CCCNC(=N)N)C(=O)N[C@@H](CCCCN)C(=O)N[C@@H](CCC(=O)O)C(=O)N[C@H](C(N)=O)[C@@H](C)CC)NC(=O)[C@H](Cc2c[nH]c4ccccc24)NC(=O)[C@H](CC(C)C)NC(=O)[C@H](CCCCN)NC3=O)NC1=O` [compound 449] as the molecule, how does the Nav1.5/Nav1.7 (hNav1.5) read?
Its Nav1.5/Nav1.7 is 1038.

And the Nav1.4/Nav1.7 (hNav1.4)?
The Nav1.4/Nav1.7 was 111.

Which results are given for `CCCC[C@@H]1NC(=O)[C@H](Cc2c[nH]c3ccccc23)NC(=O)[C@H](CCCCN)NC(=O)[C@H](CCC(N)=O)NC(=O)[C@@H](NC(=O)[C@@H](N)Cc2ccc(O)cc2)CSSC[C@@H]2NC(=O)[C@@H]3CSSC[C@@H](C(=O)N[C@@H](CCCNC(=N)N)C(=O)N[C@@H](CCCCN)C(=O)N[C@H](C(=O)N[C@@H](Cc4c[nH]c5ccccc45)C(N)=O)[C@@H](C)CC)NC(=O)[C@H](Cc4c[nH]c5ccccc45)NC(=O)[C@H](CC(C)C)NC(=O)[C@H](CCCCN)NC(=O)[C@H](CSSC[C@H](NC(=O)[C@H]([C@@H](C)O)NC(=O)[C@H](Cc4c[nH]c5ccccc45)NC1=O)C(=O)N[C@@H](CC(=O)O)C(=O)N[C@@H](CCCCN=[N+]=[N-])C(=O)N[C@@H](CCCCN)C(=O)N[C@@H](CCCNC(=N)N)C(=O)N[C@@H](C)C(=O)N3)NC(=O)[C@H](CCC(=O)O)NC(=O)[C@H](CC(C)C)NC(=O)CNC(=O)[C@H](CCC(=O)O)NC2=O` [compound 305]?
Nav1.5/Nav1.7 (hNav1.5): 0; Nav1.4/Nav1.7 (hNav1.4): 0

For `CCCC[C@@H]1NC(=O)[C@H](Cc2c[nH]c3ccccc23)NC(=O)[C@H](CCCCN)NC(=O)[C@H](CCC(N)=O)NC(=O)[C@@H](NC(=O)[C@@H](N)CCN=[N+]=[N-])CSSC[C@@H]2NC(=O)[C@@H]3CSSC[C@@H](C(=O)N[C@@H](CCCNC(=N)N)C(=O)N[C@@H](CCCCN)C(=O)N[C@H](C(=O)N[C@@H](Cc4c[nH]c5ccccc45)C(N)=O)[C@@H](C)CC)NC(=O)[C@H](Cc4c[nH]c5ccccc45)NC(=O)[C@H](CC(C)C)NC(=O)[C@H](CCCCN)NC(=O)[C@H](CSSC[C@H](NC(=O)[C@H]([C@@H](C)O)NC(=O)[C@H](Cc4c[nH]c5ccccc45)NC1=O)C(=O)N[C@@H](CC(=O)O)C(=O)N[C@@H](CO)C(=O)N[C@@H](CCCCN)C(=O)N[C@@H](CCCNC(=N)N)C(=O)N[C@@H](C)C(=O)N3)NC(=O)[C@H](CCC(=O)O)NC(=O)[C@H](CC(C)C)NC(=O)CNC(=O)[C@H](CCC(=O)O)NC2=O` [compound 309], which Nav1.5/Nav1.7 (hNav1.5) is on record?
Its Nav1.5/Nav1.7 is 634.

And the Nav1.4/Nav1.7 (hNav1.4)?
Its Nav1.4/Nav1.7 is 239.
